Measurements as given in BindingDB's records for doi:10.1016/j.ejmech.2016.01.043 (Yonsei University, 2016).

Target: 5-hydroxytryptamine receptor 7 (Homo sapiens, UniProt P34969)
Experiment: Displacement of [3H]LSD from 5-HT7 receptor (unknown origin) expressed in CHO-K1 cells by liquid scintillation counting method

5-hydroxytryptamine receptor 7, sequence (P34969 whole entry): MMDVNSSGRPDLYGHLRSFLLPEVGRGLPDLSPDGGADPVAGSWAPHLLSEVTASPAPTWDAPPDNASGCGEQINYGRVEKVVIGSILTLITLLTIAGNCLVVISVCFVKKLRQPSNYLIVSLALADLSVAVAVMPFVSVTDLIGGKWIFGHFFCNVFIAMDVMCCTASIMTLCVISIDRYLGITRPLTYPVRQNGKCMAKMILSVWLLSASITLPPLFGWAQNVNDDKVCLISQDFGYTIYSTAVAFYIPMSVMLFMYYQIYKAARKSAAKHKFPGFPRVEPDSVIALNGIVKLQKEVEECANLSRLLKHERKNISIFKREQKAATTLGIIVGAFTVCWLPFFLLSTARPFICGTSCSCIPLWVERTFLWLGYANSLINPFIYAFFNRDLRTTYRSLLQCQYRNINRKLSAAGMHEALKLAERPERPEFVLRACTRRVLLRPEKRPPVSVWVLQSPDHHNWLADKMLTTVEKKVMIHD

Ki: 794 nM
Compound: CC1CCCN(CCCCC(=O)n2c3ccccc3c3ccccc32)C1 (stereo unspecified)
